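Tested at 5 concentrations; 48 h exposure; 96-well plates; endpoints linearly interpolated, else capped at highest concentration. The concentration for 50% growth inhibition is given as GI50. Definition used: TGI = concentration required for complete inhibition of growth.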

Common to all, as to assay: inhibition of tumour cell growth, NCI panel, 48 h
Test [1] relates to A498 renal.
Test [2] concerns ACHN renal.
The test system of test [3] is DU-145 prostate.
The subject of test [4] is HL-60(TB) leukemia.
The subject of test [5] is HOP-92 NSCLC.
For test [6], the system named is HT29 colon.
Test [7] deals with NCI-H460 lung.
Test [8] concerns NCI-H522 lung.
Test [9] concerns U251 CNS.
Test [10] has as its system UACC-62 melanoma.

On to `CC1Cc2c(Cl)ncnc2N(C)c2ccc(Cl)cc21` (stereo not given), for which the GI50 in test [1] was 240 nM; in [2], 348 nM; in test [3] it was 589 nM; in test [4], 403 nM; in test [5], 279 nM; in [6], 232 nM. Also, the GI50 in test [7] was 381 nM; in [8], 232 nM; in test [9], 378 nM; in test [10] it was 406 nM. Further, the TGI in [1] is 547 nM; in test [2] it was more than 100000 nM; in [3] it was more than 100000 nM; in test [4], more than 100000 nM; in test [5], 986 nM; in [6] it was 846 nM. Further, the TGI was more than 100000 nM in test [7], 776 nM in test [8], more than 100000 nM in [9] and 69200 nM in test [10].

The values above are taken from PubChem BioAssay (NCI).
